According to patent US11040038B2, “Methods for treating diseases associated with abnormal ACVR1 expression and ACVR1 inhibitors for use in the same” (Sumitomo Dainippon Pharma Oncology, Inc., priority 2018, dated 2021):

Tested on: hepcidin expression in HepG2 cells
Assay: Inhibition of hepcidin expression in HepG2 cells (qPCR)
Assay type: cell-based
Conditions: Homo sapiens
Experimental: To evaluate the in vitro efficacy of Compound 2, HepG2 cells were stimulated with the ALK2 ligand BMP-2 in the presence or absence of various concentrations of Compound 2 and the resulting levels of hepcidin expression were measured by qPCR. The results shown in FIG. 2A, reveal a strong, dose responsive inhibition of hepcidin transcription by Compound 2 (EC50<1 nM). Effects on basal hepcidin transcription were also measured (in the absence of BMP-2 stimulation) and the results are shown in FIG. 2B. Under these experimental conditions, Compound 2 inhibited hepcidin expression in a dose responsive manner (IC50˜100 nM).

EC50 (BMP-2 stimulation, qPCR, read-out: EC50, inhibition of hepcidin transcription): < 0.001 µM
IC50 (absence of BMP-2 stimulation, read-out: IC50, inhibition of basal hepcidin expression): ~0.1 µM
Structure (SMILES): COc1cc(Nc2nccc(Nc3cccnc3-c3ccccn3)n2)ccc1N1CCN(C)CC1 [Compound 2, N^4-(2,2′-bipyridin-3-yl)-N^2-(3-methoxy-4-(4-methylpiperazin-1-yl)phenyl)pyrimidine-2,4-diamine]
